Measured values as given in patent publication US20050042209A1, “MUC1 extracellular domain and cancer treatment compositions and methods derived therefrom” (priority 2000, published 2005).

Legend:
[1] = system: ZR-75-1 tumors; test: ZR-75-1 tumor growth in nude mice; type: in vivo; conditions: 7 mg/Kg CDDP intraperitoneal, FIG. 12
Description: FIG. 12: Summary of data showing that MUC1 confers resistance to CDDP in vivo. ZR-75-1/vector cells (∘, ●) or ZR-75-1/MUC1siRNA (¤, ▪) cells (1×10^7) were injected into nude mice that had been pretreated with β-estradiol. The mice were treated as indicated (arrows) with intraperitoneal injections of PBS (¤, ∘) or 7 mg/Kg CDDP (●, ▪). The results are expressed as the tumor volume (mean±S.D>of 4-8 mice per group.
To determine if knocking-down MUC1 affects chemosensitivity in vivo, mice were injected with ZR-75-1 cells stably expressing the empty viral vector or MUCsiRNA.

[2] = system: ZR-75-1 breast carcinoma cells; test: Mitochondrial transmembrane potential in ZR-75-1 cells; type: cell-based, human
Description: Analysis of mitochondrial transmembrane potential: Cells were incubated with 0.5 nM 3,3-dihexyloxocarbocyanine iodide (DiOC6[3]; Molecular Probes) for 30 min and analyzed by flow cytometry as described (Shapiro, 2000).
(§1) As a control, stable transfection of ZR-75-1 cells with the empty reterovirus had no effect on MUC1 expression. […] By contrast, CDDP treatment of ZR-75-1/MUC1siRNA cells was associated with a clear loss of ΔΨm. In concert with these findings, cytochrome C release, as measured by immunoblot, was attenuated in CDDP-treated ZR-75-1/vector cells, as compared to ZR-75-1/MUC1siRNA cells. […] Treatment of ZR-75-1/vector cells with CDDP was associated with the induction of approximately 25% apoptosis.

[3] = system: HCT116 cells; test: Apoptosis (sub-G1 DNA, TUNEL) in HCT116 transfectants; type: cell-based, human; conditions: FIG. 15
Description: Methods. Apoptotic cells were quantified by analysis of sub-G1 DNA and TUNEL staining. To assess sub-G1 DNA content, cells were harvested, washed with PBS, fixed with 80% ethanol, and incubated in PBS containing 20 ng/ml RNase (Roche) for 60 min at 37° C. Cells were then stained with […] propidium iodide (Sigma) for 30 min at room temperature in the dark. DNA content was analyzed by flow cytometry (EPICS XL-MCL, Coulter Corp.). Apoptotic cells with DNA fragmentation were detected by staining with the In Situ cell death detection kit (TUNEL; Roche Applied Science) and visualized by confocal microscopy (ZEISS LSM510). After staining, cells were analyzed by flow cytometry. Other experimental procedures and methods were as described in Example 15.
Results. To determine if MUC1 affects the induction of apoptosis by CDDP, cells were analyzed for sub-G1 DNA content. […] Stimulation of cell surface death receptors with TNF-α or the TNF-related apoptosis inducing factor TRAIL is associated with activation of the extrinsic apoptotic pathway. To determine if MUC1 affects death receptor-induced apoptosis, HCT116 cells were treated with TNF-α.

[4] = system: HCT116 cells; test: Cell death of HCT116 transfectants; type: cell-based, human; conditions: 72 h
Description: Results. Treatment of cells with DNA-damaging agents is associated with release of mitochondrial cytochrome c and activation of the intrinsic apoptotic pathway. To determine if mitochondrial localization of the MUC1 C-ter affects cytochrome c release, the HCT116 transfectants were treated with cisplatin (CDDP). […] Release of cytochrome c in the response to genotoxic stress is associated with activation of caspase-3 and cleavage of PKCδ (Emoto et al., 1995). To assess the effects of MUC1 on caspase-3 activation, CDDP-treated cells were analyzed for cleavage of pro-caspase-3. […] Smac/DIABLO is a mitochondrial protein that induces caspase-dependent cell death by interacting with inhibitor of apoptosis proteins (IAPs) and blocking their caspase inhibitory activity (Du et al., 2000; Verhagen et al., 2000). To determine if MUC1 attenuates release of Smac/DIABLO, HCT116/vector, HCT116/MUC1 and HCT116/MUC(Y46F) cells were treated with CDDP for 24, 48 and 72 h, and cytosolic lysates were subjected to immunoblot analysis. […] CDDP treatment of HCT116/vector and HCT116/MUC1(Y46F) cells for 72 h was associated with>90% cell death and decreases in the β-actin signals used as a control for loading. By contrast, treatment of HCT116/MUC1 cells with CDDP for 72 h was associated with cessation of cell growth and<30% cell death. […]

[5] = system: intrinsic apoptotic pathway; test: Release of mitochondrial factors and caspase-3 activation in HCT116 transfectants; type: cell-based, human
Description: Methods. Experimental procedures and methods were as described in Example 15.
Results. Treatment of cells with DNA-damaging agents is associated with release of mitochondrial cytochrome c and activation of the intrinsic apoptotic pathway. To determine if mitochondrial localization of the MUC1 C-ter affects cytochrome c release, the HCT116 transfectants were treated with cisplatin (CDDP). […] Release of cytochrome c in the response to genotoxic stress is associated with activation of caspase-3 and cleavage of PKCδ (Emoto et al., 1995). To assess the effects of MUC1 on caspase-3 activation, CDDP-treated cells were analyzed for cleavage of pro-caspase-3. […] Smac/DIABLO is a mitochondrial protein that induces caspase-dependent cell death by interacting with inhibitor of apoptosis proteins (IAPs) and blocking their caspase inhibitory activity (Du et al., 2000; Verhagen et al., 2000). To determine if MUC1 attenuates release of Smac/DIABLO, HCT116/vector, HCT116/MUC1 and HCT116/MUC(Y46F) cells were treated with CDDP for 24, 48 and 72 h, and cytosolic lysates were subjected to immunoblot analysis. […] CDDP treatment of HCT116/vector and HCT116/MUC1(Y46F) cells for 72 h was associated with>90% cell death and decreases in the β-actin signals used as a control for loading. By contrast, treatment of HCT116/MUC1 cells with CDDP for 72 h was associated with cessation of cell growth and<30% cell death. These findings indicate that mitochondrial localization of MUC1 C-ter attenuates DNA damage-induced activation of the intrinsic apoptotic pathway.

[6] = system: ZR-75-1 breast carcinoma cells; test: Apoptosis assay (sub-G1 DNA) in ZR-75-1 cells; type: cell-based, human
Description: Apoptosis assay: Apoptotic cells were quantified by analysis of sub-G1 DNA. Cells were harvested, washed with PBS, fixed with 80% ethanol, and incubated in PBS containing 20 ng/ml RNase (Roche) for 60 min at 37° C. Cells were stained with 40 μg/ml propidium iodide (Sigma) for 30 min at room temperature in the dark. DNA content was analyzed by flow cytometry (EPICS XL-MCL, Coulter Corp.).
as §1

[7] = system: MUC1; test: MUC1 induction by oxidative and genotoxic stress (immunoblot); conditions: available evidence; cells not given
Description: To determine whether MUC1 is induced in response to oxidative stress, MCF-7 cells were treated with hydrogen peroxide. Cell lysates were analyzed by immunoblotting with anti-DF3/MUC1 antibody. Lysates were prepared by suspending MCF-7 cells in lysis buffer (50 mM Tris, pH 7.6, 150 mM NaCl, 1 mM PMSF, 3 mM NaF, 1 mM sodium vandate, 1 mM DTT with protease inhibitors and either 1% NP-40 or 1% Brij-96) for 30 min. on ice. Lysates were cleared by centifugation and equal amounts of proteins were resolved by SDS-PAGE. Proteins were then transferred to nitrocellulose filters, blocked by incubation in 5% non-fat dry milk in PBS with 0.05% Tween-20 and probed with anti-MUC1 antibody (Pandey et al., 1995). Anti-actin was used as a control.
Similar studies were performed with genotoxic agents.

[8] = system: cytochrome c release; test: Cytochrome c release (immunoblot) in ZR-75-1 cells; type: cell-based, human; conditions: ZR-75-1/vector cells compared to ZR-75-1/MUC1siRNA cells
Description: Immunoblot analysis: Lysates were prepared from cells as described (Li et al., 2001]. Equal amounts of protein were separated by SDS-PAGE and transferred with anti-cytochrome c (BD PharMingen, San Diego, Calif.). The immunocomplexes were detected with horseradish peroxidase-conjugated secondary antibodies and enhanced chemiluminescence (ECL, Amersham Biosciences, Piscataway, N.J.). Intensity of the signals was determined by densiometric scanning.
as §1

[9] = system: MUC1 C-ter; test: Expression of MUC1 C-ter with CHX; type: cell-based, human
[10] = system: MUC1 C-ter; test: Mitochondrial localization of MUC1 C-ter (immunoblot of mitochondrial fractions); type: cell-based, human; conditions: HCT116/MUC1 or HCT116/MUC1(Y46F) cells; EGF 10 ng/ml
Description: Cell culture. Human HCT116 colon carcinoma cells (ATCC, Manassas, Va.) were cultured in Dulbecco's modified Eagle's medium/F12 with 10% heat-inactivated fetal bovine serum, 100 units/ml penicillin, […] streptomycin and 2 mM L-glutamine.
Cell transfections. HCT116 cells were transfected with pIRES-puro2, pIRESpuro2-MUC1 or pIRES-puro2-MUC1(Y46F) as described (Li et al., 2001a). SW480 cells were transfected with pIRES-puro2 or pIRES-puro2-MUC1. Stable transfectants were selected in the presence of 0.4 mg/ml puromycin (Calbiochem-Novabiochem, San Diego, Calif.). Two independent transfections were performed for each vector.
Immunoblot analysis. Lysates were prepared from subconfluent cells as described (Li et al., 2001a). Equal amounts of protein were separated by SDS-PAGE and transferred to nitrocellulose membranes. […] The immunocomplexes were detected with horseradish peroxidase-conjugated secondary antibodies and enhanced chemiluminescence (ECL, Amersham Biosciences, Piscataway, N.J.). Intensity of the signals was determined by densitometric scanning. […]
To extend these findings, MUC1 C-ter was expressed with a GFP tag at the N-terminus and assessed mitochondrial localization. […]

[NH2][Pt]([NH2])([Cl])[Cl] [CDDP, cisplatin]
sensitivity of tumors to treatment ([1]; ZR-75-1/MUC1siRNA tumors): considerably more sensitive
tumor growth ([1]; ZR-75-1/vector tumors): partial slowing
mitochondrial transmembrane potential (ΔΨm) ([2]; ZR-75-1/MUC1siRNA cells): clear loss
mitochondrial transmembrane potential (ΔΨm) ([2]; ZR-75-1/vector cells): little if any decrease
attenuation of CDDP-induced apoptosis ([3]; HCT116/MUC1(Y46F) cells): not
CDDP-induced apoptosis ([3]; HCT116/MUC1 cells): attenuated
apoptosis (sub-G1 DNA) ([3]; HCT116/vector cells, 100 μM CDDP for 24 h): approximately 40%
cell death ([4]; HCT116/MUC1 cells): < 30%
cell death ([4]; HCT116/vector and HCT116/MUC1(Y46F) cells): > 90%
release of Smac/DIABLO ([5]; 24, 48 and 72 h, HCT116/MUC1 compared to HCT116/vector and HCT116/MUC1(Y46F) cells): attenuated
CDDP-induced cytochrome c release ([5]; HCT116/MUC1(Y46F) cells): ineffective in blocking
release of cytochrome c ([5]; HCT116/MUC1 cells): significantly attenuated
caspase-3-mediated cleavage of PKCδ ([5]; HCT116/MUC1 compared to HCT116/vector and HCT116/MUC1(Y46F) cells): attenuated
CDDP-induced activation of caspase-3 ([5]; HCT116/MUC1 compared to HCT116/vector cells): attenuates
release of apoptosis-inducing factor (AIF) ([5]; HCT116/MUC1 compared to vector or MUC1(Y46F) cells): attenuated release
cytosolic cytochrome c ([5]; HCT116/vector cells): increased levels
apoptosis ([6]; ZR-75-1/MUC1siRNA cells): over 60%
apoptosis ([6]; ZR-75-1/vector cells): approximately 25%
MUC1 induction by diverse cytotoxic agents [7]: induced
cytochrome C release (immunoblot) [8]: attenuated

C[C@@H]1C[C@@H]([C@H](O)CC2CC(=O)NC(=O)C2)C(=O)[C@@H](C)C1 [CHX, cycloheximide]
expression of MUC1 C-ter [9]: no apparent effect

EGF: EGF (10 ng/ml; Calbiochem-Novabiochem)
mitochondrial targeting of MUC1 C-ter [10]: little effect
